Source: patent US20080214807A1, “Substituted Spiro Compounds and their Use for Producing Drugs” (Gruenenthal GmbH, priority 2005, published 2008)

What was measured:
VR1 (human) = target: T1, VR1 (human) (Homo sapiens, UniProt Q8NER1); experiment: Functional testing on vanilloid receptor VR1, FLIPR Ca2+ inflow assay (CHO K1 cells stably transfected with the VR1 gene); assay type: cell-based; conditions: test compound 10 μM; for inhibition at 10 µM / activation at 10 µM: CHO-K1; for inhibition at 10 µM / VR1 (human) (% inhibition compared to 10 μM CP): 5 min incubation, then 100 nM capsaicin, relative to maximum achievable inhibition with 10 μM capsaicin; for inhibition at 10 µM: read-out: VR1 (human) (% inhibition compared to 10 μM CP); for activation at 10 µM / VR1 (human) (% stimulation compared to 10 μM CP): Ca2+ inflow relative to signal of 10 μM capsaicin (CP); for activation at 10 µM: read-out: VR1 (human) (% stimulation compared to 10 μM CP)
T1 construct: expressed in transfected cells; host or cells: CHO K1 cells (ECACC)
T1 sequence (Q8NER1 whole entry): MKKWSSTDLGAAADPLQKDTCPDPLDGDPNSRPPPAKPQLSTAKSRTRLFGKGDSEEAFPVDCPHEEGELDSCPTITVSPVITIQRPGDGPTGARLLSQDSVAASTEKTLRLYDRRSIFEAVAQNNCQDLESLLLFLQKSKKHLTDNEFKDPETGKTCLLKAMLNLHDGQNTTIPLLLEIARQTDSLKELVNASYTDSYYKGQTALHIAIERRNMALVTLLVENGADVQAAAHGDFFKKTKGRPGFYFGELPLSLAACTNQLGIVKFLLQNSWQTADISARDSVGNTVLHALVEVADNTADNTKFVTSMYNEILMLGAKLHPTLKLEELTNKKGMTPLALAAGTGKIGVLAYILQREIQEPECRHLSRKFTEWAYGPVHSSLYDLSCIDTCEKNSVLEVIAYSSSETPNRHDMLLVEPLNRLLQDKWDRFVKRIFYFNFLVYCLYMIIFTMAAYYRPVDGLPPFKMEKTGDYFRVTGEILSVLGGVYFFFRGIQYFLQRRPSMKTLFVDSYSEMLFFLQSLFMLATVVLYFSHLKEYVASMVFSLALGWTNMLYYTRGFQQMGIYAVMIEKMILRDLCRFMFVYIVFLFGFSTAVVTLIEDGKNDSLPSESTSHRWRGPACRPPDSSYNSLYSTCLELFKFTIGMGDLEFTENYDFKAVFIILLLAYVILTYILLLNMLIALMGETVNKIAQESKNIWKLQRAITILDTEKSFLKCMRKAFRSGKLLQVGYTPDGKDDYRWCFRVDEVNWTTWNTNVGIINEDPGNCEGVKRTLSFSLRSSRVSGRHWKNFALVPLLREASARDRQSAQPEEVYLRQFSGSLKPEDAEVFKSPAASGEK
Excerpt: II. Functional Testing Carried out on the Vanilloid Receptor (VR1)
The agonistic or antagonistic effect of the substances to be tested can also be determined on the vanilloid receptor (VR1) using the following assay. According to this assay, the Ca^2+ inflow is quantified through the channel using a Ca^2+-sensitive dye (type Fluo-4, Molecular Probes Europe BV, Leiden, Netherlands) in a fluorescent imaging plate reader (FLIPR, Molecular Devices, Sunnyvale, USA).
Chinese hamster ovary cells (CHO K1 cells, European Collection of Cell Cultures (ECACC) United Kingdom) were stably transfected with the VR1 gene. For functional testing, these cells were plated out on poly-D-lysine-coated black 96 well plates having a clear base (BD Biosciences, Heidelberg, Germany) at a density of 25,000 cells/well. The cells were incubated overnight at 37° C. and 5% CO2 in a culture medium (Ham's F12 nutrient mixture, 10-% by volume of FCS (foetal calf serum), 18 μg/ml L-proline). The next day the cells were incubated with Fluo-4 (Fluo-4 2 μM, 0.01% by volume of Pluronic F127, Molecular Probes in HBSS (Hank's buffered saline solution), Gibco Invitrogen GmbH, Karlsruhe, Germany) for 30 minutes at 37° C. Subsequently, the plates were washed 3 times with HBSS buffer and after further incubation for 15 minutes at room temperature used for Ca^2+ measurement in a FLI PR assay. The Ca^2+-dependent fluorescence was measured before and after the addition of the substances to be tested (λex wavelength=488 nm, λem=540 nm). Quantification was carried out by measuring the highest fluorescence intensity (FC, Fluorescence Counts) over time.
The FLIPR protocol consists of 2 substance additions. First the compounds to be tested (10 μM) were pipetted onto the cells and the Ca^2+ inflow was compared with the control (capsaicin 10 μM) (% activation based on the Ca^2+ signal after the addition of 10 μM capsaicin). After 5 minutes' incubation, 100 nM of capsaicin were administered and the Ca^2+ inflow was also determined.
Desensitising agonists and antagonists led to suppression of the Ca^2+ inflow. The % inhibition was calculated compared to the maximum achievable inhibition with 10 μM of capsaicin.

[1] = target: T2, rat-species vanilloid receptor 1 (VR1/TRPV1) (Rattus norvegicus, UniProt O35433); experiment: Functional testing on vanilloid receptor 1 (VR1/TRPV1), FLIPR Ca2+ inflow assay in rat dorsal root ganglia cells; assay type: cell-based; conditions: test compound 10 μM; for inhibition at 10 µM / VR1 (rat) (% inhibition compared to 10 μM CP): 5 min incubation, then 100 nM capsaicin, relative to maximum achievable inhibition with 10 μM capsaicin; for inhibition at 10 µM: read-out: VR1 (rat) (% inhibition compared to 10 μM CP); for activation at 10 µM / VR1 (rat) (% stimulation compared to 10 μM CP): Ca2+ inflow relative to signal of 10 μM capsaicin (CP); for activation at 10 µM: read-out: VR1 (rat) (% stimulation compared to 10 μM CP)
T2 construct: endogenous in cells; host or cells: primary cultured rat dorsal root ganglion cells
T2 sequence (O35433 whole entry): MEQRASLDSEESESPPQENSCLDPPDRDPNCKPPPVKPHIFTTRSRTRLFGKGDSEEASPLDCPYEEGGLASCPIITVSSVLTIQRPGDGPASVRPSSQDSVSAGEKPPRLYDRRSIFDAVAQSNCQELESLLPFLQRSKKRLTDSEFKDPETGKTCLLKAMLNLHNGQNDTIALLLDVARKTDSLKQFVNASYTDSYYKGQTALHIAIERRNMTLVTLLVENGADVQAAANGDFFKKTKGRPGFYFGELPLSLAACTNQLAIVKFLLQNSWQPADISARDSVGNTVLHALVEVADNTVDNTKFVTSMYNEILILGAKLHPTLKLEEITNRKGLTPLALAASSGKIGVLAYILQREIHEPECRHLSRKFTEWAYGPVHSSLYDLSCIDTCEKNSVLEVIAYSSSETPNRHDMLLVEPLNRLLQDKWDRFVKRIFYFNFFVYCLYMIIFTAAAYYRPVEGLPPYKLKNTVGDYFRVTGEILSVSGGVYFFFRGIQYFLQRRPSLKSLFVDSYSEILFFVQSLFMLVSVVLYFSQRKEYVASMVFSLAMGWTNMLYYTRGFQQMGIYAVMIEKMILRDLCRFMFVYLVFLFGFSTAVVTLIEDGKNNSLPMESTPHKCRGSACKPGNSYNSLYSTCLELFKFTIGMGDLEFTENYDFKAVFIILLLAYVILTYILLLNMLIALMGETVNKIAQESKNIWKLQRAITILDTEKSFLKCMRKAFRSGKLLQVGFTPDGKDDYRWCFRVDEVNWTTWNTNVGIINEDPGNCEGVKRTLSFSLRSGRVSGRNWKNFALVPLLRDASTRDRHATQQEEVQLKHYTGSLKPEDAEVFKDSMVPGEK
Excerpt: I. Functional Testing Carried out on the Vanilloid Receptor 1 (VRI/TRPV1 Receptor)
The agonistic or antagonistic effect of the substances to be tested can be determined on the rat-species vanilloid receptor 1 (VR1/TRPV1) using the following assay. According to this assay, the Ca^2+ inflow is quantified through the receptor channel using a Ca^2+-sensitive dye (type Fluo-4, Molecular Probes Europe BV, Leiden, Netherlands) in a fluorescent imaging plate reader (FLIPR, Molecular Devices, Sunnyvale, USA).
Complete medium: 50 mL HAMS F12 nutrient mixture (Gibco Invitrogen GmbH, Karlsruhe, Germany) with
10% by volume of FCS (foetal calf serum, Gibco Invitrogen GmbH, Karlsruhe, Germany, […]);
2 mM L-glutamine (Sigma, Munich, Germany);
1% by weight of AA solution (antibiotic/antimyotic solution, PAA, Pasching, Austria) and 25 ng/ml NGF medium (2.5 S, Gibco Invitrogen GmbH, Karlsruhe, Germany)
Cell culture plate: Poly-D-lysine-coated, black 96 well plates having a clear base (96 well black/clear plate, BD Biosciences, Heidelberg, Germany) were additionally coated with laminin (Gibco Invitrogen GmbH, Karlsruhe, Germany), the laminin being diluted with PBS (Ca—Mg-free PBS, Gibco Invitrogen GmbH, Karlsruhe, Germany) to a concentration of 100 μg/mL. Aliquots having a laminin concentration of 100 μg/mL were removed and stored at −20° C. The aliquots were diluted with PBS in a ratio of 1:10 to 10 μg/mL laminin and in each case 50 μL of the solution were pipetted into a recess in the cell culture plate. The cell culture plates were incubated for at least two hours at 37° C., the excess solution was removed by suction-filtration and the recesses were each washed twice with PBS. The coated cell culture plates were stored with excess PBS which was not removed until just before the feeding of the cells.
Preparation of the Cells:
The vertebral column was removed from decapitated rats and placed immediately into cold HBSS buffer (Hank's buffered saline solution, Gibco Invitrogen GmbH, Karlsruhe, Germany), i.e. buffer located in an ice bath, mixed with 1% by volume (percent by volume) of an AA solution (antibiotic/antimyotic solution, PAA, Pasching, Austria). The vertebral column was cut longitudinally and removed together with fasciae from the vertebral canal. Subsequently, the dorsal root ganglia (DRG) were removed and again stored in cold HBSS buffer mixed with 1% by volume of an AA solution. The DRG, from which all blood remnants and spinal nerves had been removed, were transferred in each case to 500 μL of cold type 2 collagenase (PAA, Pasching, Austria) and incubated for 35 minutes at 37° C. After the addition of 2.5% by volume of trypsin (PAA, Pasching, Austria), incubation was continued for 10 minutes at 37° C. After complete incubation, the enzyme solution was carefully pipetted off and 500 μL of complete medium were added to each of the remaining DRG. The DRG were in each case suspended several times, drawn through cannulae No. 1, No. 12 and No. 16 using a syringe and transferred to a 50 mL Falcon tube which was filled up to 15 mL with complete medium. The contents of each Falcon tube was in each case filtered through a 70 μm Falcon filter element and centrifuged for 10 minutes at 1,200 rpm and room temperature. The resulting pellet was in each case taken up in 250 μL of complete medium and the number of cells determined.
The number of cells in the suspension was set to 3×10^5 per mL and 150 μL of this suspension were in each case introduced into a recess in the cell culture plates coated as described hereinbefore. In the incubator the plates were left for two to three days at 37° C., 5% by volume of CO2 and 95% relative humidity. […]

| SMILES | inhibition at 10 µM (VR1 (human)) | activation at 10 µM (VR1 (human)) | inhibition at 10 µM [1] | activation at 10 µM [1] | VR1 (human) (% inhibition compared to 10 μM CP) (VR1 (human)) | VR1 (human) (% stimulation compared to 10 μM CP) (VR1 (human)) | VR1 (rat) (% inhibition compared to 10 μM CP) [1] | VR1 (rat) (% stimulation compared to 10 μM CP) [1] |
| --- | --- | --- | --- | --- | --- | --- | --- | --- |
| O=C(Nc1ccccc1F)N1CCC2(CC1)CC(C(=O)N1CCN(c3ncccc3Cl)CC1)=NO2 [Example 1, 3-[4-(3-chloropyridin-2-yl)piperazine-1-carbonyl]-1-oxa-2,8-diazaspiro[4.5]dec-2-ene-8-carboxylic acid-(2-fluorophenyl)amide] | 33.6% | 4.85% | 34.2% | 6.37% | – | – | – | – |
| CC(C)c1ccccc1NC(=O)N1CCC2(CC1)CC(C(=O)N1CCN(c3ncccc3Cl)CC1)=NO2 [Example 61, 3-[4-(3-chloropyridin-2-yl)piperazine-1-carbonyl]-1-oxa-2,8-diazaspiro[4.5]dec-2-ene-8-carboxylic acid-(2-isopropylphenyl)amide] | -15.1% | 0.08% | 47% | 0.47% | – | – | – | – |
| COc1cccc(NC(=O)N2CCC3(CC2)CC(C(=O)NCc2ccc(OC)c(OC)c2)=NO3)c1 [Example 16, 1-oxa-2,8-diazaspiro[4.5]dec-2-ene-3,8-dicarboxylic acid-3-(3,4-dimethoxybenzylamide)-8-[(3-methoxyphenyl)amide]] | – | – | – | – | 0.77% | 0.40% | 8.65% | 0.00% |
| O=C(Nc1ccc(Cl)c(C(F)(F)F)c1)N1CCC2(CC1)CC(C(=O)N1CCN(c3ncccc3Cl)CC1)=NO2 [Example 28, 3-[4-(3-chloropyridin-2-yl)piperazine-1-carbonyl]-1-oxa-2,8-diazaspiro[4.5]dec-2-ene-8-carboxylic acid-(4-chloro-3-trifluoromethylphenyl)amide] | 27.6% | 0.08% | 45.9% | 0.63% | – | – | – | – |
| COc1ccc(CNC(=O)C2=NOC3(CCN(C(=O)Nc4ccc(C(F)(F)F)cc4)CC3)C2)cc1OC [Example 70, 1-oxa-2,8-diazaspiro[4.5]dec-2-ene-3,8-dicarboxylic acid-3-(3,4-dimethoxybenzylamide)-8-[(4-trifluoromethylphenyl)amide]] | – | – | – | – | −0.43% | −0.18% | 67.41% | 0.35% |
| O=C(Nc1ccc(S(F)(F)(F)(F)F)cc1)N1CCC2(CC1)CC(C(=O)N1CCN(c3ncccc3Cl)CC1)=NO2 [Example 229, 3-[4-(3-chloropyridin-2-yl)piperazine-1-carbonyl]-1-oxa-2,8-diazaspiro[4.5]dec-2-ene-8-carboxylic acid-(4-pentafluorosulphanylphenyl)amide] | 37% | 10% | 94% | 45% | – | – | – | – |
| O=C(Nc1cc(C(F)(F)F)ccc1Cl)N1CCC2(CC1)CC(C(=O)N1CCN(c3ncccc3Cl)CC1)=NO2 [Example 22, 3-[4-(3-chloropyridin-2-yl)piperazine-1-carbonyl]-1-oxa-2,8-diazaspiro[4.5]dec-2-ene-8-carboxylic acid-(2-chloro-5-trifluoromethylphenyl)amide] | 8.37% | -0.66% | 43.3% | 2.79% | – | – | – | – |
| CC(C)(C)c1ccc(NC(=O)N2CCC3(CC2)CC(C(=O)N2CCN(c4ncccc4C(F)(F)F)CC2)=NO3)cc1 [Example 228, 3-[4-(3-trifluoromethylpyridin-2-yl)piperazine-1-carbonyl]-1-oxa-2,8-diazaspiro[4.5]dec-2-ene-8-carboxylic acid-(4-tert-butylphenyl)amide] | 48.1% | 7.07% | 100% | 17.2% | – | – | – | – |
| CC(C)(C)c1ccc(NC(=O)N2CCC3(CC2)CC(C(=O)N2CCN(c4ncccc4Cl)CC2)=NO3)cc1 [Example 116, 3-[4-(3-chloropyridin-2-yl)piperazine-1-carbonyl]-1-oxa-2,8-diazaspiro[4.5]dec-2-ene-8-carboxylic acid-(4-tert-butylphenyl)amide] | 77% | 42% | 95% | 59% | – | – | – | – |
| O=C(Nc1ccc(C(F)(F)F)cc1)N1CCC2(CC1)CC(C(=O)N1CCN(c3ncccc3Cl)CC1)=NO2 [Example 71, 3-[4-(3-chloropyridin-2-yl)piperazine-1-carbonyl]-1-oxa-2,8-diazaspiro[4.5]dec-2-ene-8-carboxylic acid-(4-trifluoromethylphenyl)amide] | 42% | 34.7% | 57.2% | 31.2% | – | – | – | – |
| O=C(Nc1ccc(Cl)cn1)C1=NOC2(CCN(C(=O)Nc3ccccc3Cl)CC2)C1 [Example 9, 1-oxa-2,8-diazaspiro[4.5]dec-2-ene-3,8-dicarboxylic acid-8-[(2-chlorophenyl)amide]-3-[(5-chloropyridin-2-yl)amide]] | – | – | – | – | 26.23% | −0.48% | 45.63% | 0.23% |
| O=C(Nc1ccc(OC(F)(F)F)cc1)N1CCC2(CC1)CC(C(=O)N1CCN(c3ncccc3Cl)CC1)=NO2 [Example 34, 3-[4-(3-chloropyridin-2-yl)piperazine-1-carbonyl]-1-oxa-2,8-diazaspiro[4.5]dec-2-ene-8-carboxylic acid-(4-trifluoromethoxyphenyl)amide] | 51.9% | -0.13% | 86.2% | 6.21% | – | – | – | – |
